Experimental data: patent US11186576B2, “Pyrazolo[1,5-A][1,3,5]triazine and pyrazolo[1,5-A]pyrimidine derivatives as CDK inhibitors” (Aurigene Discovery Technologies Limited, priority 2015, dated 2021)

Assays:
[1] = system: RNA polymerase II CTD phosphorylation (MDA-MB-231/NCI-H358 cells); assay: Inhibition of RNA polymerase II CTD phosphorylation in cell western assay; type: cell-based; settings: 4 hours incubation, phospho RNA Pol II Ser-5 or Ser-2
Protocol: 25000 cells (MDA-MB-231/NCI-H358) were seeded in 96 well black clear bottom plate incubated for overnight before addition of selected compound. 3 fold dilutions of selected compound diluted in DMSO starting from 10 μM, added to cells and incubated for 4 hours at 37° C., 5% CO2 incubator. Cells were washed once with 100 μl of phosphate buffered saline (sigma #P3813), then fixed with 100 μl/well of 4% Para formaldehyde for 60 min at room temperature, in dark. The cells were washed 3 times with 100 μl of wash buffer (PBS with 0.1% Triton-X-100), later blocked for 2 hours at room temperature in blocking buffer (5% BSA in PBST). Cells were stained overnight at 4° C. with Phospho RNA Pol II (S5) (Millipore #04-1572, Abcam #5131) or Phospho RNA Pol II (Ser-2), antibody (Bethyl labs #A300-654-A) in blocking buffer. Post incubation cells were washed with Delifia wash buffer (Perkin Elmer #4010-0010). Cells were treated with LANCE secondary antibodies (LANCE® Eu-W1024 perkin elmer #AD-0076 for phospho Ser-5 CTD RNA pol-II and Delfia Eu-N1 anti rabbit IgG Perkin elmer #AD0106 for phospho Ser-2 CTD RNA pol-II) for 2 hours in assay buffer (Perkin Elmer #1244-111), Cells were washed 3 times with Delfia wash buffer post incubation, Enhancement solution (Perkin Elmer #1244-105) added and incubated for 20 mins. Europium readings were taken in Victor-3 instrument. Cell normalization was done using Hoechst dye (0.5 μg/ml).
Selected compounds were screened in the above mentioned assay procedure. The EC50 values are summarised in the below table; wherein group “A” refers to an EC50 value of less than or equal to 1 μM, group “B” refers to EC50 value in range of 1 to 10 μM and group “C” refers to EC50 value of greater than 10 μM.

[2] = target: CDK7/CycH/MNAT1 (Homo sapiens (Human), UniProt P50613); assay: Biochemical assay for CDK7 (TR-FRET kinase assay); settings: 60 min pre-incubation, 1 mM ATP; for inhibition at 10 µM: 10 μM compound, read-out: % inhibition @ 10 μM; for IC50: read-out: IC50
Procedure, shortened: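 CDK7/CycH/MNAT1 (5 nM) was preincubated with compound for 60 min at room temperature, then reacted for 60 min with 100 nM ULight-MBP and 1 mM ATP in 1% DMSO. Irreversibility was probed with 20, 60 and 180 min preincubations.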

Chain of CDK7/CycH/MNAT1 (P50613 whole entry): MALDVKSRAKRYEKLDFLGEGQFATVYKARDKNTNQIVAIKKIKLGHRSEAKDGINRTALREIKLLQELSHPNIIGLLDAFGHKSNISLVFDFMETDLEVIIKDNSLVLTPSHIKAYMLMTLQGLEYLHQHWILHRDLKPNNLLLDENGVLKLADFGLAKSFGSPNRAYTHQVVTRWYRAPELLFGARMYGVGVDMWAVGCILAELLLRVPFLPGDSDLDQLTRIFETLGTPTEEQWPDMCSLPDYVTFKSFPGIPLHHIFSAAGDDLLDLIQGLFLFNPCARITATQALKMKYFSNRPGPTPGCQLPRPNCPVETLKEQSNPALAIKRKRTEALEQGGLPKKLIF
Chain of CDK7/CycH/MNAT1 (P51946 whole entry partner): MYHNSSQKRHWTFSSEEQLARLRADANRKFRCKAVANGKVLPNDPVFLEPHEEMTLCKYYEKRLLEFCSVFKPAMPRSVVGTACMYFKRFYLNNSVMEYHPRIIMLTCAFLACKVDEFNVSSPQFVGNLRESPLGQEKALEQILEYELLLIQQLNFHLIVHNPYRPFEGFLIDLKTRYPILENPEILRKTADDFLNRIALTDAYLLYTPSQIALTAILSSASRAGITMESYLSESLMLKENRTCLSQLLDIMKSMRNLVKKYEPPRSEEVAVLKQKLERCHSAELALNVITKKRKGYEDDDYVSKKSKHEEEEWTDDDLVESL
Chain of CDK7/CycH/MNAT1 (P51948 whole entry partner): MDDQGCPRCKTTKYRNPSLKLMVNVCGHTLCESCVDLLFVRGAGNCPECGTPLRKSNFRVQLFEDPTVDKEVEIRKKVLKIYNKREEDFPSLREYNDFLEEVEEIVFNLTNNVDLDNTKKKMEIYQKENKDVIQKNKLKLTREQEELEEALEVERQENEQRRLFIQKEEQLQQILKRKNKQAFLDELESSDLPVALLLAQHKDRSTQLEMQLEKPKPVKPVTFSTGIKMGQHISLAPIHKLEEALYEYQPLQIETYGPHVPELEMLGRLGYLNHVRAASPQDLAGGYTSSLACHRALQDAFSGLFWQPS

SMILES	EC50 [1]	inhibition at 10 µM [2]	IC50 [2]
C=CC(=O)N[C@H]1CC[C@@H](C(=O)Nc2cccc(CNc3nc(OC4CCN(C)CC4)nc4c(CC)cnn34)c2)CC1 [Compound 90, (1,4-cis)-4-acrylamido-N-(3-(((8-ethyl-2-((1-methylpiperidin-4-yl)oxy)pyrazolo[1,5-a][1,3,5]triazin-4-yl)amino)methyl)phenyl)cyclohexane-1-carboxamide]	1 to 10 µM	95%	< 0.3 µM
C=CC(=O)N[C@H]1CC[C@H](C(=O)Nc2cccc(CNc3nc(OC4CCN(C)CC4)nc4c(C(C)C)cnn34)c2)CC1 [Compound 91, (1,4-trans)-4-acrylamido-N-(3-(((8-isoproprayl-2-((1-methylpiperidin-4-yl)oxy)pyrazolo[1,5-a][1,3,5]triazin-4-yl)amino)methyl)phenyl)cyclohexane-1-carboxamide]	> 10 µM	94%	< 0.3 µM
C=CC(=O)N1CCC1C(=O)Nc1cccc(CNc2nc(OC3CCN(C)CC3)nc3c(C(C)C)cnn23)c1 (centres unmarked) [Compound 94, 1-acryloyl-N-(3-(((8-isopropyl-2-((1-methylpiperidin-4-yl)oxy)pyrazolo[1,5-a][1,3,5]triazin-4-yl)amino)methyl)phenyl)azetidine-2-carboxamide]	≤ 1 µM	99%	< 0.3 µM
C=CC(=O)N1CCC(C(=O)Nc2cccc(CNc3nc(OC4CCOCC4)nc4c(C(C)C)cnn34)c2)C1 (centres unmarked) [Compound 95, 1-acryloyl-N-(3-(((8-isopropyl-2-((tetrahydro-2H-pyran-4-yl)oxy)pyrazolo[1,5-a][1,3,5]triazin-4-yl)amino)methyl)phenyl)pyrrolidine-3-carboxamide]	≤ 1 µM	93%	< 0.3 µM
C=CC(=O)N1CCCC(C(=O)Nc2cccc(CNc3nc(OC4CCOCC4)nc4c(C(C)C)cnn34)c2)C1 (centres unmarked) [Compound 96, 1-acryloyl-N-(3-(((8-isopropyl-2-((tetrahydro-2H-pyran-4-yl)oxy)pyrazolo[1,5-a][1,3,5]triazin-4-yl)amino)methyl)phenyl)piperidine-3-carboxamide]	1 to 10 µM	87%	0.3 to 1 µM
C=CC(=O)N[C@H]1CC[C@@H](C(=O)Nc2cccc(CNc3nc(OC4CCOCC4)nc4c(C(C)C)cnn34)c2)CC1 [Compound 97, (1,4-cis)-4-acrylamido-N-(3-(((8-isopropyl-2-((tetrahydro-2H-pyran-4-yl)oxy)pyrazolo[1,5-a][1,3,5]triazin-4-yl)amino)methyl)phenyl)cyclohexane-1-carboxamide]	1 to 10 µM	87%	0.3 to 1 µM
C=CC(=O)N[C@H]1CC[C@@H](C(=O)Nc2cccc(CNc3nc(OC4CCN(C)C4)nc4c(C(C)C)cnn34)c2)CC1 (stereo partly drawn) [Compound 101, (1,4-cis)-4-acrylamido-N-(3-(((8-isopropyl-2-((1-methylpyrrolidin-3-yl)oxy)pyrazolo[1,5-a][1,3,5]triazin-4-yl)amino)methyl)phenyl)cyclohexane-1-carboxamide]	1 to 10 µM	96%	< 0.3 µM
C=CC(=O)N[C@H]1CC[C@@H](C(=O)Nc2cccc(CNc3nc(OC4CCN(C)CC4)nc4c(C5CC5)cnn34)c2)CC1 [Compound 105, (1,4-cis)-4-acrylamido-N-(3-(((8-cyclopropyl-2-((1-methylpiperidin-4-yl)oxy)pyrazolo[1,5-a][1,3,5]triazin-4-yl)amino)methyl)phenyl)cyclohexane-1-carboxamide]	> 10 µM	92%	< 0.3 µM
C=CC(=O)N1CCC(C(=O)Nc2cccc(CNc3nc(OC4CCNCC4)nc4c(C(C)C)cnn34)c2)CC1 [Compound 106, 1-acryloyl-N-(3-(((8-isopropyl-2-(piperidin-4-yloxy)pyrazolo[1,5-a][1,3,5]triazin-4-yl)amino)methyl)phenyl)piperidine-4-carboxamide]	1 to 10 µM	91%	> 1 µM
C=CC(=O)N1CCC(C(=O)Nc2cccc(CNc3nc(OCCCCN)nc4c(C(C)C)cnn34)c2)CC1 [Compound 107, 1-acryloyl-N-(3-(((2-(4-aminobutoxy)-8-isopropylpyrazolo[1,5-a][1,3,5]triazin-4-yl)amino)methyl)phenyl)piperidine-4-carboxamide]	1 to 10 µM	95%	< 0.3 µM
C=CC(=O)N1CCC(C(=O)Nc2cccc(CNc3nc(OC4CCN(C)CC4)nc4c(C(C)C)cnn34)c2)C1 (centres unmarked) [Compound 108, 1-acryloyl-N-(3-(((8-isopropyl-2-((1-methylpiperidin-4-yl)oxy)pyrazolo[1,5-a][1,3,5]triazin-4-yl)amino)methyl)phenyl)pyrrolidine-3-carboxamide]	1 to 10 µM	99%	< 0.3 µM
C=CC(=O)N1CCC(C(=O)Nc2cccc(CNc3nc(OC4CCN(C)CC4)nc4c(C(C)C)cnn34)c2)CC1 [Compound 111, 1-acryloyl-N-(3-(((8-isopropyl-2-((1-methylpiperidin-4-yl)oxy)pyrazolo[1,5-a][1,3,5]triazin-4-yl)amino)methyl)phenyl)piperidine-4-carboxamide]	1 to 10 µM	95%	< 0.3 µM
C=CC(=O)NC1CCCC(C(=O)Nc2cccc(CNc3nc(OC4CCN(C)CC4)nc4c(C(C)C)cnn34)c2)C1 (centres unmarked) [Compound 114, 3-acrylamido-N-(3-(((8-isopropyl-2-((1-methylpiperidin-4-yl)oxy)pyrazolo[1,5-a][1,3,5]triazin-4-yl)amino)methyl)phenyl)cyclohexane-1-carboxamide]	1 to 10 µM	97%	< 0.3 µM

Further lines, results first:

EC50 [1]	inhibition at 10 µM [2]	IC50 [2]	SMILES
≤ 1 µM	94%	< 0.3 µM	C=CC(=O)N[C@H]1CC[C@@H](C(=O)Nc2cccc(CNc3nc(OC4CCN(C)CC4)nc4c(C(C)C)cnn34)c2)CC1 [Compound 115, (1,4-cis)-4-acrylamido-N-(3-(((8-isopropyl-2-((1-methylpiperidin-4-yl)oxy)pyrazolo[1,5-a][1,3,5]triazin-4-yl)amino)methyl)phenyl)cyclohexane-1-carboxamide]
1 to 10 µM	92%	< 0.3 µM	C=CC(=O)N1CCCC(C(=O)Nc2cccc(CNc3nc(OC4CCN(C)CC4)nc4c(C(C)C)cnn34)c2)C1 (centres unmarked) [Compound 116, 1-acryloyl-N-(3-(((8-isopropyl-2-((1-methylpiperidin-4-yl)oxy)pyrazolo[1,5-a][1,3,5]triazin-4-yl)amino)methyl)phenyl)piperidine-3-carboxamide]
1 to 10 µM	95%	< 0.3 µM	C=CC(=O)N1CCCC(C(=O)Nc2cc(CNc3nc(OC4CCN(C)CC4)nc4c(C(C)C)cnn34)ccc2F)C1 (centres unmarked) [Compound 117, 1-acryloyl-N-(2-fluoro-5-(((8-isopropyl-2-((1-methylpiperidin-4-yl)oxy)pyrazolo[1,5-a][1,3,5]triazin-4-yl)amino)methyl)phenyl)piperidine-3-carboxamide]
> 10 µM	99%	< 0.3 µM	C=CC(=O)N1CCCC(C(=O)Nc2cccc(C(C)Nc3nc(OC4CCN(C)CC4)nc4c(C(C)C)cnn34)c2)C1 (centres unmarked) [Compound 119, 1-acryloyl-N-(3-(1-((8-isopropyl-2-((1-methylpiperidin-4-yl)oxy)pyrazolo[1,5-a][1,3,5]triazin-4-yl)amino)ethyl)phenyl)piperidine-3-carboxamide]
> 10 µM	–	< 0.3 µM	CC(C)c1cnn2c(NCc3cccc(NC(=O)C4CCCN(C(=O)/C=C/CN(C)C)C4)c3)nc(OC3CCN(C)CC3)nc12 (centres unmarked) [Compound 122, (E)-1-(4-(dimethylamino)but-2-enoyl)-N-(3-(((8-isopropyl-2-((1-methyl-piperidin-4-yl)oxy)pyrazolo[1,5-a][1,3,5]triazin-4-yl)amino)methyl)phenyl)-piperidine-3-carboxamide]
> 10 µM	94%	< 0.3 µM	CC(C)c1cnn2c(NCc3ccc(F)c(NC(=O)[C@H]4CC[C@@H](NC(=O)/C=C/CN(C)C)CC4)c3)nc(OC3CCN(C)CC3)nc12 [Compound 124, (1,4-cis)-4-((E)-4-(dimethylamino)but-2-enamido)-N-(2-fluoro-5-(((8-isopropyl-2-((1-methylpiperidin-4-yl)oxy)pyrazolo[1,5-a][1,3,5]triazin-4-yl)amino)methyl)phenyl)cyclohexane-1-carboxamide]
